Experimental data published in patent US20240190831A1, “TRANSTHYRETIN STABILIZING COMPOUNDS” (Protego Biopharma, Inc., priority 2021, published 2024).

Experiment: In vitro rat liver S9 stability assay (formation of tafamidis)
Assay type: in vitro ADME
Details: rat liver S9, 1 μM test compound, 37° C.
Description: A stability assay in liver S9 (rat or human) was used to evaluate the ability of a compound provided herein to convert to an active TTR stabilizer. The test compound was added to liver S9 and incubated at 37° C. in a water bath at a concentration of 1 μM. At each time point (0, 5, 10, 20, 30 and 60 min), stop solution (tolbutamide plus labetalol) was added to precipitate protein and mixed thoroughly. After centrifugation, an aliquot of supernatant was analyzed by LC-MS/MS. The percentage of formation of active agent was calculated at each time point.

Row | Structure (SMILES) | Formation of tafamidis at 60 min
1 | O=C(NC1CCN(CC(F)F)C1)c1ccc2nc(-c3cc(Cl)cc(Cl)c3)oc2c1 (stereo not drawn) [Compound 23, 2-(3,5-dichlorophenyl)-N-(1-(2,2-difluoroethyl)pyrrolidin-3-yl)benzo[d]oxazole-6-carboxamide] | A (A is <25%)
2 | O=C(NC1CCN(CC(F)(F)F)C1)c1ccc2nc(-c3cc(Cl)cc(Cl)c3)oc2c1 (stereo not drawn) [Compound 24, 2-(3,5-dichlorophenyl)-N-(1-(2,2,2-trifluoroethyl)pyrrolidin-3-yl)benzo[d]oxazole-6-carboxamide] | A (A is <25%)
3 | CC(Cc1ccn[nH]1)OC(=O)c1ccc2nc(-c3cc(Cl)cc(Cl)c3)oc2c1 (stereo not drawn) [Compound 38, 1-(1H-pyrazol-5-yl)propan-2-yl 2-(3,5-dichlorophenyl) benzo[d]oxazole-6-carboxylate] | B (B is ≥25 to <50%)
4 | O=C(OCCCO)c1ccc2nc(-c3cc(Cl)cc(Cl)c3)oc2c1 [Compound 40, 3-hydroxypropyl 2-(3,5-dichlorophenyl)benzo[d]oxazole-6-carboxylate] | B (B is ≥25 to <50%)
5 | CC(N1CCC(OC(=O)c2ccc3nc(-c4cc(Cl)cc(Cl)c4)oc3c2)C1)C(F)(F)F (stereo not drawn) [Compound 45, 1-(1,1,1-trifluoropropan-2-yl)pyrrolidin-3-yl 2-(3,5-dichlorophenyl)benzo[d]oxazole-6-carboxylate] | B (B is ≥25 to <50%)
6 | O=C(OC1CCN(c2cccnc2)C1)c1ccc2nc(-c3cc(Cl)cc(Cl)c3)oc2c1 (stereo not drawn) [Compound 49, 1-(pyridin-3-yl)pyrrolidin-3-yl 2-(3,5-dichlorophenyl)benzo-[d]oxazole-6-carboxylate] | B (B is ≥25 to <50%)
7 | O=C(OC1CCN(c2ncccn2)C1)c1ccc2nc(-c3cc(Cl)cc(Cl)c3)oc2c1 (stereo not drawn) [Compound 51, 1-(pyrimidin-2-yl)pyrrolidin-3-yl 2-(3,5-dichlorophenyl)benzo-[d]oxazole-6-carboxylate] | B (B is ≥25 to <50%)
8 | O=C(OC1CCN2CCCCC12)c1ccc2nc(-c3cc(Cl)cc(Cl)c3)oc2c1 (stereo not drawn) [Compound 55, Octahydroindolizin-1-yl 2-(3,5-dichlorophenyl)benzo[d]oxazole-6-carboxylate] | B (B is ≥25 to <50%)
9 | CC(C)(N1CCC(OC(=O)c2ccc3nc(-c4cc(Cl)cc(Cl)c4)oc3c2)C1)C(F)(F)F (stereo not drawn) [Compound 57, 1-(1,1,1-trifluoro-2-methylpropan-2-yl)pyrrolidin-3-yl 2-(3,5-dichlorophenyl)benzo[d]oxazole-6-carboxylate] | A (A is <25%)
10 | O=C(OC1CCc2nc[nH]c2C1)c1ccc2nc(-c3cc(Cl)cc(Cl)c3)oc2c1 (stereo not drawn) [Compound 60, 4,5,6,7-tetrahydro-1H-benzo[d]imidazol-6-yl 2-(3,5-dichlorophenyl) benzo[d]oxazole-6-carboxylate] | A (A is <25%)
11 | O=C(O[C@H]1C[C@@H](O)C1)c1ccc2nc(-c3cc(Cl)cc(Cl)c3)oc2c1 [Compound 63, (cis)-3-hydroxycyclobutyl 2-(3,5-dichlorophenyl) benzo[d]oxazole-6-carboxylate] | A (A is <25%)
12 | O=C(OC1CC(=O)N2CCCCC12)c1ccc2nc(-c3cc(Cl)cc(Cl)c3)oc2c1 (stereo not drawn) [Compound 65, 3-oxooctahydroindolizin-1-yl 2-(3,5-dichlorophenyl)benzo-[d]oxazole-6-carboxylate] | C (C is ≥50 to <75%)
13 | O=C(c1ccc2nc(-c3cc(Cl)cc(Cl)c3)oc2c1)N1CCC(O)CC1 [Compound 82] | A (A is <25%)
14 | O=C(c1ccc2nc(-c3cc(Cl)cc(Cl)c3)oc2c1)N1CCCC1CO (stereo not drawn) [Compound 85] | A (A is <25%)
15 | CN(C)C(=O)c1ccc2nc(-c3cc(Cl)cc(Cl)c3)oc2c1 [Compound 87, 2-(3,5-Dichlorophenyl)-N,N-dimethylbenzo[d]oxazole-6-carboxamide] | A (A is <25%)
16 | O=C(c1ccc2nc(-c3cc(Cl)cc(Cl)c3)oc2c1)N1CCCC1 [Compound 88] | A (A is <25%)
17 | O=C(c1ccc2nc(-c3cc(Cl)cc(Cl)c3)oc2c1)N(CCO)CC(F)F [Compound 90] | A (A is <25%)
18 | O=C(c1ccc2nc(-c3cc(Cl)cc(Cl)c3)oc2c1)N1CCCCC1CO (stereo not drawn) [Compound 95] | A (A is <25%)

Continued, values first:

Row | Formation of tafamidis at 60 min | Structure (SMILES)
19 | A (A is <25%) | CN1CCC(NC(=O)c2ccc3nc(-c4cc(Cl)cc(Cl)c4)oc3c2)C1 (stereo not drawn) [Compound 21, 2-(3,5-dichlorophenyl)-N-(1-methylpyrrolidin-3-yl)benzo[d]oxazole-6-carboxamide]
20 | A (A is <25%) | O=C(NC1CCN(CCF)C1)c1ccc2nc(-c3cc(Cl)cc(Cl)c3)oc2c1 (stereo not drawn) [Compound 22, 2-(3,5-dichlorophenyl)-N-(1-(2-fluoroethyl)pyrrolidin-3-yl)benzo[d]oxazole-6-carboxamide]
21 | A (A is <25%) | O=C(N[C@H]1C[C@H](O)C1)c1ccc2nc(-c3cc(Cl)cc(Cl)c3)oc2c1 [Compound 26, 2-(3,5-dichlorophenyl)-N-((trans)-3-hydroxycyclobutyl)-benzo[d]oxazole-6-carboxamide]
22 | A (A is <25%) | O=C(N[C@H]1C[C@@H](O)C1)c1ccc2nc(-c3cc(Cl)cc(Cl)c3)oc2c1 [Compound 27, 2-(3,5-dichlorophenyl)-N-((Cis)-3-hydroxycyclobutyl)benzo-[d]oxazole-6-carboxamide]
23 | D (D is ≥75%) | O=C(OCCc1ccn[nH]1)c1ccc2nc(-c3cc(Cl)cc(Cl)c3)oc2c1 [Compound 36, 2-(1H-pyrazol-5-yl) ethyl 2-(3,5-dichlorophenyl)benzo[d]oxazole-6-carboxylate]
24 | A (A is <25%) | CCC(Cc1ncc[nH]1)OC(=O)c1ccc2nc(-c3cc(Cl)cc(Cl)c3)oc2c1 (stereo not drawn) [Compound 37, 1-(1H-imidazol-2-yl) butan-2-yl 2-(3,5-dichlorophenyl)benzo-[d]oxazole-6-carboxylate]
25 | C (C is ≥50 to <75%) | CC(CCO)OC(=O)c1ccc2nc(-c3cc(Cl)cc(Cl)c3)oc2c1 (stereo not drawn) [Compound 41, 4-hydroxybutan-2-yl 2-(3,5-dichlorophenyl) benzo [d] oxazole-6-carboxylate]
26 | B (B is ≥25 to <50%) | CC1(C)CCC(OC(=O)c2ccc3nc(-c4cc(Cl)cc(Cl)c4)oc3c2)C1 (stereo not drawn) [Compound 48, 3,3-dimethylcyclopentyl 2-(3,5-dichlorophenyl)benzo[d]oxazole-6-carboxylate]
27 | A (A is <25%) | O=C(OC1CCN(c2ccncc2)C1)c1ccc2nc(-c3cc(Cl)cc(Cl)c3)oc2c1 (stereo not drawn) [Compound 50, 1-(pyridin-4-yl)pyrrolidin-3-yl 2-(3,5-dichlorophenyl)benzo-[d]oxazole-6-carboxylate]
28 | A (A is <25%) | O=C(OC1CCN(c2cnccn2)C1)c1ccc2nc(-c3cc(Cl)cc(Cl)c3)oc2c1 (stereo not drawn) [Compound 52, 1-(pyrazin-2-yl)pyrrolidin-3-yl 2-(3,5-dichlorophenyl)benzo-[d]oxazole-6-carboxylate]
29 | A (A is <25%) | O=C(OC1CCN(c2ccncn2)C1)c1ccc2nc(-c3cc(Cl)cc(Cl)c3)oc2c1 (stereo not drawn) [Compound 53, 1-(pyrimidin-4-yl)pyrrolidin-3-yl 2-(3,5-dichlorophenyl)benzo-[d]oxazole-6-carboxylate]
30 | A (A is <25%) | O=C(OC1CCN(c2cccnn2)C1)c1ccc2nc(-c3cc(Cl)cc(Cl)c3)oc2c1 (stereo not drawn) [Compound 54, 1-(pyridazin-3-yl)pyrrolidin-3-yl 2-(3,5-dichlorophenyl)benzo-[d]oxazole-6-carboxylate]
31 | A (A is <25%) | Cc1ncc2n1CC(OC(=O)c1ccc3nc(-c4cc(Cl)cc(Cl)c4)oc3c1)CC2 (stereo not drawn) [Compound 56, 3-methyl-5,6,7,8-tetrahydroimidazo [1,5-a] pyridin-6-yl 2-(3,5-dichlorophenyl) benzo[d]oxazole-6-carboxylate]
32 | B (B is ≥25 to <50%) | O=C(O[C@H]1C[C@H](O)C1)c1ccc2nc(-c3cc(Cl)cc(Cl)c3)oc2c1 [Compound 64, (trans)-3-hydroxycyclobutyl 2-(3,5-dichlorophenyl) benzo[d]oxazole-6-carboxylate]
33 | A (A is <25%) | O=C(OC1CCN(CCO)C1)c1ccc2nc(-c3cc(Cl)cc(Cl)c3)oc2c1 (stereo not drawn) [Compound 66]
34 | A (A is <25%) | COCCN1CCC(OC(=O)c2ccc3nc(-c4cc(Cl)cc(Cl)c4)oc3c2)C1 (stereo not drawn) [Compound 67, 1-(2-methoxyethyl) pyrrolidin-3-yl 2-(3,5-dichlorophenyl) benzo[d]oxazole-6-carboxylate]
35 | A (A is <25%) | CC(Cc1cnc[nH]1)OC(=O)c1ccc2nc(-c3cc(Cl)cc(Cl)c3)oc2c1 (stereo not drawn) [Compound 80]
36 | A (A is <25%) | O=C(c1ccc2nc(-c3cc(Cl)cc(Cl)c3)oc2c1)N1CCOCC1 [Compound 81]
37 | A (A is <25%) | O=C(c1ccc2nc(-c3cc(Cl)cc(Cl)c3)oc2c1)N1CC(O)C(F)(F)C1 (stereo not drawn) [Compound 86]
38 | A (A is <25%) | O=C(c1ccc2nc(-c3cc(Cl)cc(Cl)c3)oc2c1)N1CCCCC1 [Compound 89]
39 | A (A is <25%) | O=C(c1ccc2nc(-c3cc(Cl)cc(Cl)c3)oc2c1)N(CCO)CCF [Compound 91]
40 | A (A is <25%) | CC1(O)CCN(C(=O)c2ccc3nc(-c4cc(Cl)cc(Cl)c4)oc3c2)C1 (stereo not drawn) [Compound 92]
41 | A (A is <25%) | O=C(c1ccc2nc(-c3cc(Cl)cc(Cl)c3)oc2c1)N1CC2(CC(O)C2)C1 [Compound 94]
42 | A (A is <25%) | O=C(N[C@H]1CC[C@@H](O)CC1)c1ccc2nc(-c3cc(Cl)cc(Cl)c3)oc2c1 [Compound 96]
